Our source for the inhibition values is patent US10245261B2, “Substituted indol-5-ol derivatives and their therapeutic applications” (NantBioScience, Inc., priority 2013, dated 2019).

As usually defined, the inhibition is the drop in the measured response relative to a control, in per cent.

Common to all, as to test: KinaseProfiler kinase assay
Common to all, as to type: biochemical

Test [1] addresses KDR(h) (Homo sapiens, UniProt P35968).
Test [2] concerns the target Abl(h) (Homo sapiens, UniProt P00519).
For test [3], the target named is cSRC(h) (Homo sapiens, UniProt P12931). As for the experimental part: (§1) This example tests the inhibitory properties of representative compounds of the invention in c-Src kinase, Aurora-A kinase, Flt3 kinase, Ret kinase and TrkA Kinase assays (see, Daniele Fancelli et al, J. Med. Chem., 2006, 49 (24), pp 7247-7251). The KinaseProfiler™ Service Assay Protocols (Millipore) was used to test the kinase inhibiting activity of novel compounds from this invention. To do this, the buffer composition was as: 20 mM MOPS, 1 mM EDTA, 0.01% Brij-35, 5% Glycerol, 0.1% β-mercaptoethanol, 1 mg/mL BSA. Test compounds were initially dissolved in DMSO at the desired concentration, then serially diluted to the kinase assay buffer. In a final reaction volume of 25 μL, Aurora-A(h) (5-10 mU) is incubated with 8 mM MOPS pH 7.0, 0.2 mM EDTA, 200 μM LRRASLG (Kemptide), 10 mM MgAcetate and [γ^33P-ATP]. The reaction was initiated by the addition of the MgATP mix. After incubation for 40 minute at room temperature, the reaction was stopped by addition of 5 μL of a 3% phosphoric acid solution. 10 μL of the reaction was then spotted onto a P30 filtermat and washed three times for 5 minutes in 50 mM phosphoric acid and once in methanol prior to drying and scintillation counting. Wells containing substrate but no kinase and wells containing a phosphopeptide control were used to set 0% and 100% phosphorylation value, respectively.
Chain of cSRC(h) (P12931 whole entry): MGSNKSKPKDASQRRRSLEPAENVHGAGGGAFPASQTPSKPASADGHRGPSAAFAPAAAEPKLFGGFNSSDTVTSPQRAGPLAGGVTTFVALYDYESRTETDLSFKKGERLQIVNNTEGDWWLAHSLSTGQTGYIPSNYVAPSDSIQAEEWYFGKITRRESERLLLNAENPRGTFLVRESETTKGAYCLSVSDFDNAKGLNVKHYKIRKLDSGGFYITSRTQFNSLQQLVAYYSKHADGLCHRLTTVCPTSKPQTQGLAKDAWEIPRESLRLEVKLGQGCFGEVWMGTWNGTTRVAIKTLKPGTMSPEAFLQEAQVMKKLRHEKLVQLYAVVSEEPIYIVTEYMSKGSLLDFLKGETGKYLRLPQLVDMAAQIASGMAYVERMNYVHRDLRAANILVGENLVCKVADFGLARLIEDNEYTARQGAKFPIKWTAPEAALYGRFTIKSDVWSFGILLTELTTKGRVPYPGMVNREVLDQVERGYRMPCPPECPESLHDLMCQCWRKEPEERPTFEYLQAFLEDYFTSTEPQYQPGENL
(§2) The Kinase Hotspot℠ kinase assay was also used to test the compounds for IC50 or % inhibitions (Reaction Biology Corp.). Inhibitory IC50 values were determined by titration of compound at the optimal kinase concentration (Kinase EC50).

The target in test [4] is T1, Flt3(h) (Homo sapiens, UniProt P36888).
T1 sequence (P36888 27-993): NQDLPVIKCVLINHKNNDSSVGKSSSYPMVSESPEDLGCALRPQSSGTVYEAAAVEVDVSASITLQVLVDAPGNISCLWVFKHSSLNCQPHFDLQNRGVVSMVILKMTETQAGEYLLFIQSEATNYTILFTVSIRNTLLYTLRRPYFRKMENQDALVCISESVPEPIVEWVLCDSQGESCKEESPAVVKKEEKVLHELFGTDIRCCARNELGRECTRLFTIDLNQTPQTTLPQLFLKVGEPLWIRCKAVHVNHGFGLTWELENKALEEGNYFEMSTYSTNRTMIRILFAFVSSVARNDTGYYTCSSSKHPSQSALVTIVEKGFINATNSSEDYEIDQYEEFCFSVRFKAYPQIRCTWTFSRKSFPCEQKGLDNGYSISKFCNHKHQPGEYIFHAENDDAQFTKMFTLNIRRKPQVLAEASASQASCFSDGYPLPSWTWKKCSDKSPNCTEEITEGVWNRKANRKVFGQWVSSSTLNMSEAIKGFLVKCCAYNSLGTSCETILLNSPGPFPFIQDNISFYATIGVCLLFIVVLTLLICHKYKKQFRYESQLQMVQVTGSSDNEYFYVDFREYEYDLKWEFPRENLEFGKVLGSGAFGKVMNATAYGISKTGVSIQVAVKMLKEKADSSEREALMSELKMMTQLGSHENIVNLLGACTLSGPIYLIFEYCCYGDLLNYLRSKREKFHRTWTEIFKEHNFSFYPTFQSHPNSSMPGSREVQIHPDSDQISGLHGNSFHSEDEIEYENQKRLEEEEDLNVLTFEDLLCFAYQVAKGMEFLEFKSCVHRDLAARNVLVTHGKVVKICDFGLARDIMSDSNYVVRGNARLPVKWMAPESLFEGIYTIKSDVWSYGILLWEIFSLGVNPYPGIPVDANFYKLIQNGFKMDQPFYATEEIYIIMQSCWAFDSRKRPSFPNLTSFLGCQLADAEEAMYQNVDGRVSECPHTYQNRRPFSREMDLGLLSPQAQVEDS
As for the experimental part: as §1, §2

Test [5] deals with T2, Aurora-A(h) (Homo sapiens, UniProt O14965).
T2 sequence (O14965 1-403): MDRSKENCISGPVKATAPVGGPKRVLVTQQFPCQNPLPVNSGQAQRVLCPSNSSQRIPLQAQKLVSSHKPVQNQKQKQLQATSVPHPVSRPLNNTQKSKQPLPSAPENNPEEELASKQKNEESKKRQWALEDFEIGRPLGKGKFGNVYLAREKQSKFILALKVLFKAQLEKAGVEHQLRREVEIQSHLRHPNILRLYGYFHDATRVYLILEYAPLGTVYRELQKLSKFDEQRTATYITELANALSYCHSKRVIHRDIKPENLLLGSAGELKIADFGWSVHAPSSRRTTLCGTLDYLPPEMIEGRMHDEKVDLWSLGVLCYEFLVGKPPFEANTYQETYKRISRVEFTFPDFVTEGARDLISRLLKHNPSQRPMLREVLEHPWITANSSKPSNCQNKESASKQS
To be noted: read-out: % Inhibition @1 μM Auroro-A. The protocol: as §1, §2

The target in test [6] is Ret(h) (Homo sapiens, UniProt P07949). As for the experimental part: as §1, §2
Chain of Ret(h) (P07949 29-1114): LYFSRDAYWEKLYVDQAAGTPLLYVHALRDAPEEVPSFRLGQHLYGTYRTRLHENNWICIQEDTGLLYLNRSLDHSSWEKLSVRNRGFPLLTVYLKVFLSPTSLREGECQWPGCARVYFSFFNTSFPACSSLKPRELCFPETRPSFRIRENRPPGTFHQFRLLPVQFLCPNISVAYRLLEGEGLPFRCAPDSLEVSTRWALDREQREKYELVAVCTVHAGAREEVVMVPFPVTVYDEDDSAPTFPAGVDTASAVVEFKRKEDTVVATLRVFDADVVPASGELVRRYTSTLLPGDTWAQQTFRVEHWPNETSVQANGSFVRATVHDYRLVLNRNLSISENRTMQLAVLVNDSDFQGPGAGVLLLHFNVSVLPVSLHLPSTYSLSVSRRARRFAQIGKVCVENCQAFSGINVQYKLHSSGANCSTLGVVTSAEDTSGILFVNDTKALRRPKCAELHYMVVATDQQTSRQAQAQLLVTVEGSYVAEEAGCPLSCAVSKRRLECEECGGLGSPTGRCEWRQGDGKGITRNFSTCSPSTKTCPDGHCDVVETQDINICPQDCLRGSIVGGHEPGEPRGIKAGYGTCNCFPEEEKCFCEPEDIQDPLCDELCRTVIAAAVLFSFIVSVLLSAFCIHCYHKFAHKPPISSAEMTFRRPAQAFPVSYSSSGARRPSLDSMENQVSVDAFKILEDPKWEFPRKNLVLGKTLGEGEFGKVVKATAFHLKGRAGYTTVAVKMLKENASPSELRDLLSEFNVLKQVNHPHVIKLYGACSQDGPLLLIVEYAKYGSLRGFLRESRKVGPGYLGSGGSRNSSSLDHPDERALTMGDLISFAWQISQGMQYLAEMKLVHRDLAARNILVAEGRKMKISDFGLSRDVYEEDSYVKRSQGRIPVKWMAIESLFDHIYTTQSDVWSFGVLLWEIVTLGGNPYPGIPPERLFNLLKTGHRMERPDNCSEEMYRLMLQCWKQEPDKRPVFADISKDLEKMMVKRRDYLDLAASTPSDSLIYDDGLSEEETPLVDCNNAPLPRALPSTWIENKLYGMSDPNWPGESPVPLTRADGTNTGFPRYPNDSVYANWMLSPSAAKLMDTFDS

Chain of KDR(h) (P35968 20-1356): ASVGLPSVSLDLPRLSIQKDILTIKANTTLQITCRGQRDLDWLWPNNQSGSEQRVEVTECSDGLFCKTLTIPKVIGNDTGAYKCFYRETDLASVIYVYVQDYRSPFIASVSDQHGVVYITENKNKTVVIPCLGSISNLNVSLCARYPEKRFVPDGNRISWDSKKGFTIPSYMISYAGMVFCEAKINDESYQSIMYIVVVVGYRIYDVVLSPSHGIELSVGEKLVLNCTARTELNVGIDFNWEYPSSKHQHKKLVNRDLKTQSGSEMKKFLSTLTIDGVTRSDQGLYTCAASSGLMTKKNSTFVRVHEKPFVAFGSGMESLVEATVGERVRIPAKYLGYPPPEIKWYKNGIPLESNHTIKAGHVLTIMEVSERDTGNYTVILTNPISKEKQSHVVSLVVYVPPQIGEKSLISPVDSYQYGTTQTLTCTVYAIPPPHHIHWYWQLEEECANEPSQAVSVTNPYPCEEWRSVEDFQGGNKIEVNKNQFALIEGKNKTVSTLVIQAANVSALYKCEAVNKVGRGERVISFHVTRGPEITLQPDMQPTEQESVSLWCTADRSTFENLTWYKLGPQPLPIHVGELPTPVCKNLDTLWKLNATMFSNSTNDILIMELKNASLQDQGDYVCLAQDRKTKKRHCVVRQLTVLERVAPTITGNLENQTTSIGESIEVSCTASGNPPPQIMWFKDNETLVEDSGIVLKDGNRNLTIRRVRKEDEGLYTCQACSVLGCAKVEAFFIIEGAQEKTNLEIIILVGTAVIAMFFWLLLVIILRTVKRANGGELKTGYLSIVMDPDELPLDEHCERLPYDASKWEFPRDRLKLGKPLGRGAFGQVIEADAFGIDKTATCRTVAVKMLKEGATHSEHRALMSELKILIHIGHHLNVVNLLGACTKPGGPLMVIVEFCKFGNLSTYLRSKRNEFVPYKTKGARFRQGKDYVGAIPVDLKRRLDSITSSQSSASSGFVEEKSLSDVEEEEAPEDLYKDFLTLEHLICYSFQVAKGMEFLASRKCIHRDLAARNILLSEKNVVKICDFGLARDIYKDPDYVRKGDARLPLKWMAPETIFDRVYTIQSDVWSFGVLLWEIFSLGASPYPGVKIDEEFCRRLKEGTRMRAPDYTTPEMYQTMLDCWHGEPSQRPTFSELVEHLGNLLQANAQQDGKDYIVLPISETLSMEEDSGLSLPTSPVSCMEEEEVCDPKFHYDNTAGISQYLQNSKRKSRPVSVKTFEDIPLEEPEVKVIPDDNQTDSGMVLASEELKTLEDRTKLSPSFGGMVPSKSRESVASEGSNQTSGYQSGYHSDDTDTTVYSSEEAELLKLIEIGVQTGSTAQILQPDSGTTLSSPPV
Chain of Abl(h) (P00519 whole entry): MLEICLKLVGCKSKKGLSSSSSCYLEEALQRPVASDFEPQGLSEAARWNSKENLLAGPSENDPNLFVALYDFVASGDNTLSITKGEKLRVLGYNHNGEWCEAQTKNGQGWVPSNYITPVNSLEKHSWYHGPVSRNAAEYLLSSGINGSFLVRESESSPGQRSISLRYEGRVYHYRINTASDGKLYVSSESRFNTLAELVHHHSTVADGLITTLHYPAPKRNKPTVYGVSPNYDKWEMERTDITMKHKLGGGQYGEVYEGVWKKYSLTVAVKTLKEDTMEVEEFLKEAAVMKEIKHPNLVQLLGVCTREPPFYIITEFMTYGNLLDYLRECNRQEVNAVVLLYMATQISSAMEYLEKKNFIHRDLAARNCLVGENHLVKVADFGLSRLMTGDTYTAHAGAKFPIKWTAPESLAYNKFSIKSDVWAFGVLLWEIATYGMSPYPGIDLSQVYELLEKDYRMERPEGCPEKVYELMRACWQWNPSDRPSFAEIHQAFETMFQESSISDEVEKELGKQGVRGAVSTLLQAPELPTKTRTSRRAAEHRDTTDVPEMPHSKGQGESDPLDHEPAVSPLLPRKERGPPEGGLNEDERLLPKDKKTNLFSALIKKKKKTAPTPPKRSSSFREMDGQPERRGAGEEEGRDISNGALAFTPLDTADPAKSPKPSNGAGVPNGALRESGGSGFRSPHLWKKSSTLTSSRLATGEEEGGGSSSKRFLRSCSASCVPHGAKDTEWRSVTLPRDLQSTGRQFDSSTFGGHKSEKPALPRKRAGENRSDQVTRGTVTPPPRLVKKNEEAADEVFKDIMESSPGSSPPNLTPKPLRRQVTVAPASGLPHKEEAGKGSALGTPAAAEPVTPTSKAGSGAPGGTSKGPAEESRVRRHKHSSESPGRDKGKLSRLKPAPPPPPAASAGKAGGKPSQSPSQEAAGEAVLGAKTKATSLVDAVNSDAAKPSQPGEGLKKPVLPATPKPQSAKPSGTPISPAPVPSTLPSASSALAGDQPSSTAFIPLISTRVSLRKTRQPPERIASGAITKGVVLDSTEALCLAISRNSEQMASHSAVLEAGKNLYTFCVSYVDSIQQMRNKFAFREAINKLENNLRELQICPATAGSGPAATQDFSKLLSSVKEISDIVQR

For `Cc1cc2c(F)c(Oc3nc(Nc4cc(C5CC5)[nH]n4)cc(N4CCOCC4)n3)ccc2[nH]1` [Compound 13], the inhibition at 1 µM in test [1] was 96%; in test [2], 112%; in test [3] it was 100%; in test [4] it was 101%; in test [5], 100%; in test [6], 100%.

For `Cc1cc2c(F)c(Oc3nc(Nc4cc(C5CC5)[nH]n4)cc(N4CC(O)C4)n3)ccc2[nH]1` [Compound 15], the inhibition at 1 µM in test [1] stood at 91%; in test [2], 108%; in test [3], 99%; in test [4], 100%; in test [5], 101%; in test [6], 101%.

For `COC1CCN(c2cc(Nc3cc(C4CC4)[nH]n3)nc(Oc3ccc4[nH]c(C)cc4c3F)n2)C1` (stereo not drawn) [Compound 16], the inhibition at 1 µM in test [1] stood at 92%; in test [2], 103%; in test [3], 100%; in test [4], 98%; in test [5] it was 101%; in test [6], 101%.

`Cc1cc2c(F)c(Oc3nc(Nc4cc(C5CC5)[nH]n4)cc(N4CCC(N(C)C)C4)n3)ccc2[nH]1` (stereo not drawn) [Compound 17]: the inhibition at 1 µM in test [1] was 93%; in test [2], 108%; in test [3], 98%; in test [4], 100%; in test [5], 100%; in test [6], 98%.

For `CC(=O)N1CCN(c2cc(Nc3cc(C4CC4)[nH]n3)nc(Oc3ccc4[nH]c(C)cc4c3F)n2)CC1` [Compound 18], the inhibition at 1 µM in test [1] came to 93%; in test [2] it was 107%; in test [3], 99%; in test [4], 100%; in test [5], 100%; in test [6] it was 97%.

Regarding `Cc1cc2c(F)c(Oc3nc(Nc4cc(C5CC5)[nH]n4)cc(N4CCNC(=O)C4)n3)ccc2[nH]1` [Compound 19], the inhibition at 1 µM in test [1] was determined as 93%; in test [2], 108%; in test [3], 99%; in test [4], 99%; in test [5], 100%; in test [6], 100%.

Take `Cc1cc2c(F)c(Oc3nc(Nc4cc(C5CC5)[nH]n4)cc(N4C[C@@H](C)N[C@@H](C)C4)n3)ccc2[nH]1` [Compound 20]: the inhibition at 1 µM in test [1] turned out to be 93%; in test [2], 107%; in test [3], 99%; in test [4], 100%; in test [5], 99%; in test [6], 100%.

Take `Cc1cc2c(F)c(Oc3nc(Nc4cc(C5CC5)[nH]n4)cc(N4CCC(O)CC4)n3)ccc2[nH]1` [Compound 21]: the inhibition at 1 µM in test [1] came out at 87%; in test [2], 107%; in test [3], 98%; in test [4], 101%; in test [5], 100%; in test [6] it was 100%.

Consider `Cc1cc2c(F)c(Oc3nc(Nc4cc(C5CC5)[nH]n4)cc(N4CCC(F)CC4)n3)ccc2[nH]1` [Compound 22], for which the inhibition at 1 µM in test [1] came to 92%; in test [2], 108%; in test [3], 100%; in test [4] it was 100%; in test [5], 101%; in test [6], 101%.

In the case of `Cc1cc2c(F)c(Oc3nc(Nc4cc(C5CC5)[nH]n4)cc(N4CCN(S(C)(=O)=O)CC4)n3)ccc2[nH]1` [Compound 23], the inhibition at 1 µM in test [1] came to 93%; in test [2], 108%; in test [3] it was 100%; in test [4] it was 100%; in test [5] it was 101%; in test [6], 100%.

As to `Cc1cc2c(F)c(Oc3nc(Nc4cc(C5CC5)[nH]n4)cc(N4CCN(c5ccccn5)CC4)n3)ccc2[nH]1` [Compound 25], the inhibition at 1 µM in test [1] is 93%; in test [2], 108%; in test [3], 100%; in test [4], 100%; in test [5], 101%; in test [6], 101%.

`Cc1cc2c(F)c(Oc3nc(Nc4cc(C5CC5)[nH]n4)cc(N4CCN(c5cccnc5)CC4)n3)ccc2[nH]1` [Compound 26]: the inhibition at 1 µM was determined as 93% in test [1]; 109% in test [2]; 100% in test [3]; 100% in test [4]; 101% in test [5]; 101% in test [6].

Take `Cc1cc2c(F)c(Oc3nc(Nc4cc(C5CC5)[nH]n4)cc(N4CCN(c5ccncc5)CC4)n3)ccc2[nH]1` [Compound 27]: the inhibition at 1 µM in test [1] stood at 92%; in test [2], 108%; in test [3], 99%; in test [4] it was 100%; in test [5], 101%; in test [6] it was 101%.

Consider `COCCN1CCN(c2cc(Nc3cc(C4CC4)[nH]n3)nc(Oc3ccc4[nH]c(C)cc4c3F)n2)CC1` [Compound 28], for which the inhibition at 1 µM in test [1] was found to be 89%; in test [2], 108%; in test [3], 96%; in test [4], 100%; in test [5] it was 101%; in test [6], 101%.

Regarding `Cc1cc2c(F)c(Oc3nc(Nc4cc(C5CC5)[nH]n4)cc(N4CCOC(CN(C)C)C4)n3)ccc2[nH]1` (stereo not drawn) [Compound 30], the inhibition at 1 µM came out at 94% in test [1]; 110% in test [2]; 99% in test [3]; 100% in test [4]; 100% in test [5]; 101% in test [6].

As to `CCN1CCN(c2cc(Nc3cc(C4CC4)[nH]n3)nc(Oc3ccc4[nH]c(C)cc4c3F)n2)CC1` [Compound 31], the inhibition at 1 µM is 91% in test [1]; 115% in test [2]; 104% in test [3]; 101% in test [4]; 101% in test [5]; 102% in test [6].

For the compound `Cc1cc2c(F)c(Oc3nc(Nc4cc(C5CC5)[nH]n4)cc(N4CCN(CC(F)(F)F)CC4)n3)ccc2[nH]1` [Compound 38], the inhibition at 1 µM stood at 95% in test [1]; 108% in test [2]; 98% in test [3]; 98% in test [4]; 80% in test [5]; 101% in test [6].
